Experimental findings from US11608320B2, “Oxazolidinone hydroxamic acid derivatives” (KUWAIT UNIVERSITY, priority 2020, dated 2023) are described below.

pIC50: −log10 of the molar value.

Assay [1] addresses T1, recombinant human 5-LO enzyme (Homo sapiens, UniProt P09917).
T1 sequence (P09917 1-674): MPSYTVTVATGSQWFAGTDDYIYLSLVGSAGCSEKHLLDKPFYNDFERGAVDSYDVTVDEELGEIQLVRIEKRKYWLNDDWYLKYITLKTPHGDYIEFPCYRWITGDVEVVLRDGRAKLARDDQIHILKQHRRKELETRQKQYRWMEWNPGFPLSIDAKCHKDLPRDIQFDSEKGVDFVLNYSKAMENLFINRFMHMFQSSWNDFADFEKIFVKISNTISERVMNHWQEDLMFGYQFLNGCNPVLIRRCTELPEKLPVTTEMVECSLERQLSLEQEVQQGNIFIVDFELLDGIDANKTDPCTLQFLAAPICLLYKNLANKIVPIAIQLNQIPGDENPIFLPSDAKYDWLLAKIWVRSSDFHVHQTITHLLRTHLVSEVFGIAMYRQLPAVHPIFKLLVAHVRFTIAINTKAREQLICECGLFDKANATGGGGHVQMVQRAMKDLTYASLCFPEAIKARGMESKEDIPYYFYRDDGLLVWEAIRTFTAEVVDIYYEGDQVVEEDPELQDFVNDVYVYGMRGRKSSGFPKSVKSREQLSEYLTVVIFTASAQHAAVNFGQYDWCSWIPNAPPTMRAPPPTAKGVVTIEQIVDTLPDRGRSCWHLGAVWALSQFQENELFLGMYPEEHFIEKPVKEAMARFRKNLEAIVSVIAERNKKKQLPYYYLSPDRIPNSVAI
Nature of the assay: Direct 5-LO inhibitory activity in a cell-free assay (H2DCF-DA fluorescence). In kind it is biochemical. To be noted: cell-free, recombinant human 5-LO; read-out: Inhibitory Activity IC50, Human recomb. 5-LO. Here is the method: H2DCF-DA (60 μM) was first pre-cleaved by incubating with 450 mU/ml recombinant human 5-LO enzyme in Tris buffer (containing 50 mM Tris, pH=7.5, 2 mM EDTA, 2 mM CaCl2), 1 mM dithiothreitol (DTT) and 0.6 U/ml glutathione peroxidase) for 10 min at room temperature. […] After 10 min incubation at room temperature, the reaction was started with the addition of 50 μl of the substrate solution (Tris buffer containing 20 μM ATP and 20 μM arachidonic acid). After a further 20 min, the reaction was terminated with 100 μl acetonitrile. Fluorescence was read at 500 nm excitation and 520 emission, with Novostar® microplate reader (BMG Labtech, Offenburg, Germany). Appropriate controls, including 100 μM nordihydroguaiaretic acid (NDGA), were included to isolate only the 5-LO-attributable, NDGA-inhibitable RFU values.

The test system of assay [2] is LTC4 release from IgE/antigen-activated mouse mast cells (BMMC). Nature of the assay: Inhibition of LTC4 release in allergen/IgE-activated bone marrow-derived mouse mast cells. In kind it is cell-based. Conditions: BMMC, anti-DNP IgE sensitized, DNP-BSA 30 ng/ml, 30 min. The text has this:
(§1) Inhibition of LTC4 release and degranulation in allergen/IgE-activated bone marrow-derived mouse mast cells (BMMC): Bone marrow-derived mast cells (BMMC) were generated from pathogen-free 5-7 week old male Balb/c mice according to the method of Davis et al., [2004] (Davis, B. J., et al., (2004), Journal of Immunology, 173: 6914-6920). Essentially, bone marrow cells were obtained by flushing of the femoral bone marrow and cultured in RPMI 1640 medium supplemented with 10% FBS, 100 U/ml penicillin, and 100 μg/ml streptomycin, 25 mM HEPES, 1.0 mM sodium pyruvate, 0.1 mM nonessential amino acids, 0.0035% 2-mercaptoethanol, and 30 ng/ml mouse recombinant IL-3, with culture medium replaced every two days. Cells were used after 4-8 weeks of culture, by which time at least 97% of the cells would have differentiated into mast cells.
(§2) The generated BMMCs were seeded at 5×10^4 cells/well in a 96-well flat-bottom culture plate and passively sensitized overnight with 0.5 μg/ml anti-DNP monoclonal IgE antibody (clone SPE-7, Sigma-Aldrich, St. Louis, Mo., USA). The cells were then washed twice to remove any unbound antibody and subsequently re-suspended in reaction buffer (135 mM NaCl, 5 mM KCl, 1.8 mM CaCl2), 1 mM MgCl2, 5.6 mM glucose, 0.05% BSA and 20 mM HEPES, pH 7.4). They were then pre-incubated with the test compounds (0.01-30 μM) or the solvent (0.05% DMSO) for 15 min before being stimulated with the specific antigen, DNP-BSA (30 ng/ml). After 30 min incubation at 37° C., the amount of LTC4 released into the supernatant (as index of 5-LO activity) was determined by ELISA as described below.
Assay of released leukotrienes/β-hexoseaminidase enzyme: Appropriately diluted supernatants were assayed for the released LTs (LTB4 and LTC4), by the enzyme immunoassay (EIA) method using assay kits supplied by R&D Systems (Minneapolis, Minn., USA) and following the manufacturer's instructions.

The subject of assay [3] is degranulation of bone marrow-derived mouse mast cells. Nature of the assay: Inhibition of degranulation (β-hexoseaminidase release) in allergen/IgE-activated BMMC. The assay is classed as cell-based. To be noted: anti-DNP IgE sensitized, DNP-BSA 30 ng/ml, 30 min.
From the text: as §1
as §2, with “They were then pre-incubated with the test compounds (0.01-30 μM) or the solvent (0.05% DMSO) for 15 min before being stimulated with the specific antigen, DNP-BSA (30 ng/ml).” left out
The concurrently-released granular enzyme, β-hexoseaminidase (as index of degranulation) was determined as described below.
The beta-hexoseaminidase released into the supernatant by the degranulating BMMCs was determined colorimetrically using p-nitrophenyl-N-acetyl-β-D-glucosaminide as substrate. […] The absorbance of the colored product (p-nitrophenol) was then read at 405 nm in a microplate reader. Results were expressed as percentage of the total cell content (determined in cells lysed with 0.1% triton-x-100).

In assay [4] the test system is zymosan-induced peritonitis. Nature of the assay: Zymosan-induced peritoneal inflammation in mice. Conditions: 30 min before zymosan i.p., peritoneal exudate at 2 h. The assay is classed as in vivo, mouse. An excerpt: Inhibition of zymosan-induced peritoneal inflammation in mice: Female Balb/c mice, 6-8 weeks old, obtained from the Animal Resources Center of the Health Sciences Center, Kuwait University, were used. They were maintained under temperature-controlled conditions with an artificial 12-h light/dark cycle and allowed standard chow and water ad libitum. The study protocol was approved by the “Health Sciences Center Animal Welfare Committee” and complied with the “Guidelines for the Care and Use of Laboratory Animals” of the Health Sciences Centre, Kuwait University. The zymosan-induced peritonitis model-a recognized LT-mediated inflammatory reaction, described particularly in Hanke et al., 2013 ([…]., et al. (2013). Journal of medicinal chemistry, 56(22), 9031-9044) was used. […] After 30 min, all groups were injected intraperitonally with 0.2 ml of activated zymosan (2 mg/ml) except the control group that received 0.2 ml PBS. After 2 h, all animals were killed and the peritoneal exudate was collected by washing the cavity with 3 ml of heparinized (10 IU/ml) PBS.

What is called pIC50 is the IC50 on a negative log10 scale, so that one unit is a factor of ten. Take `CCCCCCCC(=O)N(O)C[C@H]1CN(c2ccc(N3CCOCC3)c(F)c2)C(=O)O1` [PH-251, (R)—N-((3-(3-fluoro-4-morpholinophenyl)-2-oxooxazolidin-5-yl)methyl)-N-hydroxyoctanamide]: the pIC50 in assay [1] was 5.80. Moreover, the “Inhibition of generation of LTC4 from IgE/allergen-activated mast cells (FIG. 2A)” value in assay [2] is listed as “equally effective in inhibiting the generation of LTC4”. In assay [3], the “Inhibition of degranulation (release of granular β-hexoseaminidase) (FIG. 2B)” value is “able to inhibit degranulation”. The figures for the “Net Exudate Vol” value in assay [4] (3 mg/kg s.c.), in assay [4] (10 mg/kg s.c.) and in assay [4] (30 mg/kg s.c.) were 0.24 ± 0.05 mL, 0.12 ± 0.08 mL and 0.04 ± 0.02 mL, respectively. Moreover, the “Total Cell No” value in assay [4] (3 mg/kg s.c.) was 21.1 ± 1.6 ×10^6; in assay [4] (10 mg/kg s.c.) it was 16.4 ±17 ×10^6; in assay [4] (30 mg/kg s.c.) it was 17.6 ± 2.1 ×10^6. The “Total LTC4” value in assay [4] (3 mg/kg s.c.) stood at 101.7 ± 20.2 ng; in assay [4] (10 mg/kg s.c.), 77.4 ± 16.8 ng; in assay [4] (30 mg/kg s.c.), 33.9 ± 4.9 ng.
